According to patent US4737519A, “Substituted naphthalenes, indoles, benzofurans, and benzothiophenes as lipoxygenase inhibitors” (The Upjohn Company, priority 1986, dated 1988):

Legend:
leukotriene synthesis = assay: inhibition of leukotriene synthesis (standard laboratory test); assay type: cell-based
Experimental: Certain of the amino acyl compounds of this invention (when R3 is --C(O)--(CR17 R18)m --(CH2)n --NR14 R15, --C(O)--AA or --C(O)--PhX--NH2) were evaluated in a standard laboratory test to measure the inhibition of leukotriene synthesis. Four of the amino-type compounds of this invention were preferred in this test. Specifically, in this test system, L-Valine, 2,3-diethyl-4-methoxynaphth-1-yl ester, hydrochloride; L-Valine, 2-n-butyl-4-methoxynaphth-1-yl ester; L-Valine, 2-n-butyl-4-methoxynaphth-1-yl ester, hydrochloride; and L-Alanine, 2-n-butyl-4-methoxynaphth-1-yl ester were preferred.

mucous secretion = assay: canine tracheal mucous secretion (hillock count); assay type: in vivo, mongrel dogs; settings: indomethacin 5 mg/kg pretreatment
Experimental: Mongrel dogs (weight 18-35 kg) were anesthetized with a mixture of chloralose (100 mg/kg) and urethane (500 mg/kg) via intravenous injection. The animals were secured to a surgery table, ventral side up, and the neck and inner right hind limb were shaved. A ventral midline incision was made in the neck using a Bovie CSVII electrosurgical unit, starting from the papillae (interramal) to the clavicle thus exposing the trachea. An endotracheal tube was secured into the lower trachea. The animals were then connected via the endotracheal tube to a Harvard respirator (Model 607A) that delivered room air at a constant tidal volume and frequency. Two polyethylene catheters were connected to the endotracheal tube, and one was connected to a medical gas analyzer (Beckman, Model LB-2) that continuously measured the carbon dioxide (CO2) content of the expired air for determination of end tidal CO2. The other was connected to a pressure transducer (Statham, Model PMI 131TC+2.5-350) for the measurement of airway press ure.
A second incision made in the inner right hind limb to expose the femoral artery and vein was made for the catheterization of these large vessels. A polyethylene catheter was tied into the artery and connected to a pressure transducer (Statham, Model P231D) for the measurement of blood pressure. This catheter also allowed for samples of arterial blood to be collected for measurements of blood gas tension using a blood gas analyser (Corning, Model 175). Another polyethylene catheter was tied into the femoral vein which was used for injecting additional anesthetic and paralyzing drugs. Gallamine triethiodide (20-40 mg) was used to paralyze the respiratory muscles and a single injection of sodium bicarbonate 7.5% (0.5 mg/kg) in conjunction with a continuous i.v. drip of 5% dextrose in 0.9% saline helped to maintain fluid balance. All physiological measurements were recorded and monitored on a polygraph (Grass instruments, Model 7D). Once the femoral cutdown was completed, surgery on the neck region resumed. The carotid artery was exposed and the "knuckle" (a portion of the carotid which bisects to supply blood flow to the trachea and neck muscles) was located. A small polyethylene catheter was then inserted into the muscular branch of the cranial thyroid artery (CTA). This allowed for close arterial injection of experimental agents. The strap muscles were removed and the mucosal surface of the trachea exposed by cutting along the anterior midline of the upper two-thirds of the extrathoracic trachea and pulling the cut edges widely apart. The exposed mucosa was checked for proper canulation by blanching and appropriate adjustments of the canula into the CTA were made until blanching was achieved.
Isometric tension measurements of the trachealis muscle were recorded by suturing a rigid, plastic bar to the (15) cartilaginous rings of the cut edges of the trachea, and connecting one side to a fixed restraint and the contralateral side to a force displacement transducer (Grass, Model FT 03C). An initial tension of 25-30 g/cm of trachea was applied to the muscle, and it was allowed to stabilize for 45 min. An initial zero tension point was determined before agonists were injected into the CTA, and the zero was readjusted after agonist injections.
To visualize secretions coming from the submucosal gland duct openings of the trachea, powdered tantalum, an inert metal (2-5 microns in size) was sprayed on the trachea until it formed a uniform layer over the mucosal surface. The tantalum itself did nothing to normal secretion, but prevented the normal ciliary dispersion of secretions from the gland duct openings; these secretions, therefore, caused elevations ("hillocks") in the tantalum layer. The number of hillocks formed in a 1.2 cm^2 field, 1-2 cm from the larynx, were counted and their images were recorded with a video camera (Hitachi CCTV, Model HV-17TU) mounted on a dissecting microscrope (Zeiss Ompi-1) with a beam splitter. […]

human airways = settings: in vitro; cited from earlier work

| Compound | inhibition at 1 µg/mL (leukotriene synthesis; 1 microgram/ml) [%] | inhibition of synthesis of leukotriene (leukotriene synthesis; 10 micrograms/ml) | also measured |
| --- | --- | --- | --- |
| CCCCc1cc(OC)c2ccccc2c1OC(=O)[C@H](C)N [L-Alanine, 2-n-butyl-4-methoxynaphth-1-yl ester] | 98 | completely inhibited |  |
| CCc1c(CC)c(OC(=O)[C@@H](N)C(C)C)c2ccccc2c1OC.Cl [L-Valine, 2,3-diethyl-4-methoxynaphth-1-yl ester, hydrochloride] | 100 | completely inhibited |  |
| CCCCc1cc(OC)c2ccccc2c1OC(=O)[C@@H](N)C(C)C.Cl [L-Valine, 2-n-butyl-4-methoxynaphth-1-yl ester, hydrochloride] |  | completely inhibited | inhibition of synthesis of leukotriene (leukotriene synthesis; 1 microgram/ml): 93% |
| CCCCc1cc(OC)c2ccccc2c1OC(=O)[C@@H](N)C(C)C [L-Valine, 2-n-butyl-4-methoxynaphth-1-yl ester] | 97 | completely inhibited |  |
| COc1ccc2c(c1)c(CC(=O)O)c(C)n2C(=O)c1ccc(Cl)cc1 [indomethacin, reference compound] |  |  | block of normal baseline secretion (mucous secretion; at least 30 minutes): about 20%; block of the effect of arachidonate alone (mucous secretion; arachidonate 1.0 mg in the CTA): nicely blocked the effect of arachidonate alone |
| monohydroxyeicosatetraenoic acid |  |  | release of mucus from human airways (human airways): release mucus from human airway |
